From patent US9365851B2, “Spalt-like transcription factor 4 (SALL4) and uses thereof” (National University of Singapore, priority 2011, dated 2016)

Columns and labels:
PTEN = PTEN expression upon SALL4 gene knockdown in HCC cells (qPCR, Western blot densitometry); format: cell-based, human; conditions: day 4 post-transduction
Text: FIGS. 26A-26C: PTEN repression as a mechanism of SALL4-induced HCC. (26A) qPCR analysis of PTEN expression upon SALL4 gene knockdown. […] E5 shRNA is a shRNA specifically targets SALL4. (26B) Western blot analysis of PTEN protein expression upon SALL4 gene knockdown using fractionated nuclear (N) and cytoplasmic […] lysates. A total cell lysate (T) was used for protein expression analysis too. SALL4 is exclusively present in cell nuclei (left). Densitometry analysis of total PTEN expression (top right) and cytoplasmic PTEN expression (bottom right).
PTEN expression upon SALL4 gene knockdown was investigated by qPCR and western blot.

HuH-7 cells = assay: Cell viability assay (MTT/MTS); format: cell-based, human; conditions: HuH-7, 72 h
Procedure: Cell viability assay (MTT) (Invitrogen) was performed according to the manufacturer's instructions. Briefly—10000 cells were seeded in 100 ul medium in 96 well plates. The next day cells were treated as indicated on the figures. At the designated time after the treatment 20 ul of 5 mg/ml MTT solution was added to each well. After 3.5 h incubation at 37 C the medium was removed and the reaction was terminated with a solution of 4 mM HCl, 0.1% Nondet P-40 (NP40) all in isopropanol in dark on orbital shaker for […]. at room temperature. The absorbance was read at 590 nm with a reference filter of 620 nm in Spectromax M3 (ABI) spectrophotometer.
Multiple leukemic and solid tumor cancer cell lines with high or low/no SALL4 expression (FIG. 10A) were chosen to test the biological effect(s) of the wild type peptide. Wild type or scrambled peptide was delivered into tumor cells at various concentrations, and their effects on cells were evaluated 72 hours post-treatment by the MTS cell viability assay. […] The effect of wild type peptide is SALL4-specific, as it had no effect on KBM5, an AML cell line with undetectable endogenous SALL4 expression. We were surprised to see that the wild type peptide had no effect on a high SALL4-expressing endometrioid cancer cell line, AN3CA. This prompted checking whether PTEN, a gene repressed by SALL4 through its interaction with NuRD 27, was present in this cell line. According to the model herein, the function of wild type peptide requires both the expression of SALL4 and intact SALL4 downstream target genes, such as PTEN. In tumor cells with PTEN deletion, even though wild type peptide could compete with endogenous SALL4 in interacting with the HDAC complex, an anti-proliferative effect might not be observed. Therefore, expression of PTEN was evaluated in AN3CA cells along with other cell lines. […]
7000 cells were seeded in each wells of a microtiter plate in 100 μL of complete medium. […] After four hours incubation of the tetrazolium salt, absorbance at 490 nm was read by a microplate reader.

Substance: CTATTTAGCCAAAGGCAAA (short hairpin RNA, chemistry and delivery not given here, further chemistry not given here) [E5 shRNA]
- increase of PTEN mRNA (PTEN): 16.5%

Substance: H-MSRRKQAKPQHI-OH [wt peptide, MSRRKQAKPQHI]
- cell viability (HuH-7 cells): reduced the cell viability
- cell viability (HuH-7 cells; listed as wild type peptide): decreased cell viability

Substance: Scr peptide: same 12 amino acids as the wt peptide, but in a scrambled sequence; negative control (SRMRQKIHPKIQ) [reference compound]
- cell viability (HuH-7 cells): remained unaffected
